Series [1] concerns Cyclin D1 expression in MicroNB cells. The experiment in a line: Cyclin D1 expression (western blot), MicroNB cells. The format is cell-based. The note with it: incubated with human HBB, 48 hr; in reference to beta-tubulin; FIG. 4C. Here is the method:
Lysates of neuroblastoma cells and of mouse organs were resolved on SDS-PAGE after the addition of Laemmli sample buffer, and transferred onto nitrocellulose membrane. The total amount of protein in the lanes was assessed by Ponceau staining prior to blocking of the membrane. The membrane was blocked at room temperature with 3% BSA (Sigma-Aldrich) diluted in TBS-Tween (TBST) for 1 hr. For detection of the target proteins, membranes were incubated with relevant primary antibodies (see “Antibodies”), then washed 3 times×5 min with TBSTX1 and incubated with suitable HRP-conjugated secondary antibodies (see “Antibodies”). Membranes were washed again 5 times×3 min with TBSTX1. […]
Neuroblastoma cells (5×10^6) were plated and after 24 hr cells were incubated for 48 hr with human HBB diluted in starvation medium (RPMI 5% BSA) to a concentration of 10 μg/ml. […] Cyclin D1 expression was calculated in reference to β-tubulin expression in the lane as measured by densitometry using Scion Image software (Scion).
Whole cell lysates of MicroNB and MacroNB cells incubated with human HBB were subjected to western blot analysis and immunostaining. […] Cyclin D1 expression was calculated in reference to beta-tubulin. […] Significance was evaluated using Student's t-test for each analysis after incubation with HBB compared to incubation with control media.
Background: Immunoblotting shows a protein as a band on a membrane.

Series [2] deals with ERK1/2 phosphorylation in MacroNB cells. The experiment in a line: ERK1/2 phosphorylation (western blot), MacroNB cells. The format is cell-based, human. The note with it: HBB (1 μg) for 48 hr; in reference to total ERK2; FIG. 4A. Here is the method: Lysates of neuroblastoma cells and of mouse organs were resolved on SDS-PAGE after the addition of Laemmli sample buffer, and transferred onto nitrocellulose membrane. The total amount of protein in the lanes was assessed by Ponceau staining prior to blocking of the membrane. The membrane was blocked at room temperature with 3% BSA (Sigma-Aldrich) diluted in TBS-Tween (TBST) for 1 hr. For detection of the target proteins, membranes were incubated with relevant primary antibodies (see “Antibodies”), then washed 3 times×5 min with TBSTX1 and incubated with suitable HRP-conjugated secondary antibodies (see “Antibodies”). Membranes were washed again 5 times×3 min with TBSTX1. The bands were visualized by chemiluminescence-ECL reactions and autoradiography by exposure to Fuji film. The amount of the relevant protein in the lanes was estimated by densitometry using Scion Image software (Scion, Frederick, Md., USA).
Neuroblastoma cells (5×10^6) were plated and after 24 hr the growth medium was replaced with starvation medium (RPMI 0.5% FCS) for 24 hr. […] ERK1/2 phosphorylation was calculated in reference to total ERK2 protein, p38 and TAK1 phosphorylation was calculated in reference to total p38 and TAK1, respectively, as measured by densitometry using Scion Image software (Scion). […]

The test system of series [3] is normal kidney cell line 293T. The experiment in a line: Viability of normal cells, 293T. The format is cell-based. The settings on record: data not shown. An excerpt: The influence of HBB on the viability of the normal lung-residing cell lines HPEC (Human pulmonary endothelial cells) and HLMEC (Human lung microvascular endothelial cells) and on the normal kidney cell line 293T and 293A was examined as well.

Another series relates to MacroNB cells. As to the kind of experiment: Cell cycle analysis by flow cytometry, MacroNB cells. The format is cell-based, human. The settings on record: HBB (1 μg) for 48 hr. Here is the method: Neuroblastoma cells (5×10^5) were plated and after 24 hr, cells were incubated for 48 hr with HBB diluted in starvation medium (RPMI 5% BSA) to a concentration of 10 μg/ml. Neuroblastoma cells incubated with starvation medium containing BSA alone served as control. Cells were pelleted, washed and resuspended in 0.5 ml PBSX1, containing 0.05 ml propidium iodide (PI) (P-4170, Sigma) (50 μg/ml), and 0.05 ml Triton X-100 (Sigma-Aldrich). Flow cytometry analysis was performed using Becton Dickinson FACSort and CellQuest software (Becton Dickinson, Mountain View, Calif.).
The cells were also subjected to measurement of cellular DNA content and cell cycle analysis using flow cytometry. Incubation with human HBB elevated the amount of MicroNB and MacroNB cells in the sub GO phase, by 18% and 11%, respectively (data not shown).
Background: In flow cytometry, cells or beads pass a laser one at a time.

The subject of series [4] is MacroNB cells (human neuroblastoma lung macrometastatic variant). The experiment in a line: MTS-based viability assay, MacroNB cells. The format is cell-based. The settings on record: 10 μg human HBB, 72 hr, FIG. 3D. An excerpt:
The human neuroblastoma lung micrometastatic (MicroNB) and macrometastatic (MacroNB) variants were generated using a mouse model for human neuroblastoma metastasis (Nevo et al., 2008) from the parental cell lines MHH-NB11 (Pietsch et al., 1988) and SH-SY5Y (Biedler et al., 1978) as detailed here (Edry Botzer et al., 2011), and were maintained in culture as previously described (Nevo et al., 2008). The MicroNB and MacroNB variants were previously designated DisNB and MetNB, respectively (Edry Botzer et al., 2011). Authentication of MicroNB and MacroNB cells was performed by short tandem repeat analysis of DNA using the Type-it Microsatellite PCR Kit (Qiagen, Valencia, Calif.), for the genes published by the American Type Culture Collection (ATCC) (Manassas, Va.). The parental cell line MHH-NB11 was kindly provided by Dr. T. Pietsch (Department of Neuropathology, University of Bonn Medical Center, Bonn, Germany).
Neuroblastoma cells were seeded (3×10^4 per well) in a 96-well flat-bottomed tissue culture plate. […] Cell viability under normal conditions (starvation medium containing BSA) or after incubation with the relevant factors was monitored after 72 hr using an XTT (XTT cell proliferation kit; Biological Industries) or MTS-based (CellTiter 96® AQueous One Solution Cell Proliferation Assay; Promega) viability assays according to manufacturer instructions. Cells were also counted using the trypan-blue exclusion assay to verify the results obtained by XTT and MTS-based viability assays.
Circular dichroism analysis of human hemoglobin (HB), hemoglobin subunit alpha (HBA) and subunit beta (HBB) indicated a helical structure for all three proteins (FIG. 3C). […] Cell viability under normal conditions (starvation medium) or after incubation with human HBB was monitored after an incubation of 72 hr using an MTS-based viability assay (CellTiter 96® AQueous One Solution Cell Proliferation Assay, Promega) according to the manufacturer instructions. […] Significance was evaluated using Student's t-test for each variant incubated with human HBB compared to incubation with control media (con).
In general terms: Formazan colour is commonly taken as a measure of viable cells.

Regarding “HBB: beta subunit of human hemoglobin, 147 amino acids, SEQ ID NO:2, HPLC-purified from native human hemoglobin”, the “Cyclin-D1 expression in MicroNB cells” value in series [1] is “significant decline”. Besides, the “ERK phosphorylation in MacroNB cells” value in series [2] was “decreased”. Moreover, the “influence on the viability of normal cells” value in series [3] was “did not influence the viability”. Also, the “elevation of the amount of MacroNB cells in G0-G1 phase” value with MacroNB cells (FIG. 4B) is 23%. Also, the “elevation of the amount of MacroNB cells in the sub G0 phase” value with MacroNB cells (data not shown) is reported as 11%. For the same substance, the “decrease in viability of MacroNB cells” value in series [4] worked out at 29%.

(Values after patent publication US10561712B2, “Treatment of cancer and inhibition of metastasis using hemoglobin beta subunit” (UNIVERSITY OF MARYLAND, BALTIMORE, priority 2014, dated 2020).)
